Measured values reported in US7105566B2, “Methods of treatment during vascular procedures” (Allergan, Inc., priority 2002, dated 2006).
Entries after “also recorded” stand apart in the source; their conditions may differ.

What was measured:
[1] = Serum concentration of Compound 1 in male cynomolgus monkeys; type: in vivo, cynomolgus monkey; settings: given orally
Method: (§1) Five male cynomologus monkeys were employed in the study. Three of the five monkeys were treated with Compound 1 at a daily dosage of 1.25 mg/kg (orally) for a period of 25 days. Compound 1 is an RAR antagonist or inhibitor. The remaining two were similarly treated with a vehicle to serve as control. Serum samples were collected on days 1, 8, 15, 22 and 25 for triglyceride determination. Serum samples from days 8, 15, 22 and 25 were also assayed for the concentration of Compound 1.

[2] = test system: male cynomologus monkeys; test: Clinical observation, body weight and food consumption of treated monkeys; type: in vivo, cynomolgus monkey; settings: daily 1.25 mg/kg orally for 25 days
Method: as §1

[3] = test system: male SJL mice; test: Hepatic triglyceride (HTG) output after WR-1339 injection in fasted male SJL mice; type: in vivo, mouse; settings: 20 mg/kg oral daily for 4 days; fasted
Method: On day 4, animals were fasted after dosing, starting at 8 a.m. Following 6 hours of fasting, blood samples were collected prior to intravenous injection of WR-1339 at 100 mg/5 ml/kg. Additional serum samples were collected at 1 and 2 hours after WR-1339 injection. WR-1339 is a detergent that inactivates lipoprotein lipase and thus prevents the removal of triglycerides from circulation. By measuring the increase of STG after WR-1339 administration in fasted animals, the hepatic triglyceride (HTG) output during fasting can be estimated.
Due to the lack of effect of Compound 3 at 20 mg/kg, the dose was increased to 100 mg/kg in the same set of mice. STG was determined on day 3 prior to dosing (Day 3, 8 a.m.). […] To ensure that Compound 3 would be bioavailable, Compound 3 was dissolved in DMSO and given by intraperitoneal injections, once at 4 p.m. on day 3 and once at 8 a.m. on day 4, at a dosage of 100 mg/kg/injection. Administration of WR-1339 and blood collections on day 4 were similarly conducted as described above.

oral absorption [1]: well absorbed
Compound: CCc1ccc(C2=CC(C)(C)Sc3ccc(C#Cc4ccc(C(=O)O)cc4)cc32)cc1 [Compound 1, 4-[[4-(4-ethylphenyl)-2,2-dimethyl-(2H)-thiochromen-6-yl]-ethynyl]-benzoic acid]
body weight or rate of food consumption [2]: no change | general health / clinical signs ([2]; 1.25 mg/kg): appeared healthy; also recorded: without any noticeable abnormal clinical signs | HTG output after WR-1339 injection [3]: reduction of HTG output
